Drawing on ChEMBL document CHEMBL1148820, “Preparation and optimization of a series of 3-carboxamido-5-phenacylaminopyrazole bradykinin B1 receptor antagonists” (J Med Chem, 2007), this text covers IC50 and Ki for 39 compounds.

The structures appear in SMILES notation.

The target of one experiment is T1, B1 bradykinin receptor (Homo sapiens, UniProt P46663).
T1 sequence (P46663 whole entry): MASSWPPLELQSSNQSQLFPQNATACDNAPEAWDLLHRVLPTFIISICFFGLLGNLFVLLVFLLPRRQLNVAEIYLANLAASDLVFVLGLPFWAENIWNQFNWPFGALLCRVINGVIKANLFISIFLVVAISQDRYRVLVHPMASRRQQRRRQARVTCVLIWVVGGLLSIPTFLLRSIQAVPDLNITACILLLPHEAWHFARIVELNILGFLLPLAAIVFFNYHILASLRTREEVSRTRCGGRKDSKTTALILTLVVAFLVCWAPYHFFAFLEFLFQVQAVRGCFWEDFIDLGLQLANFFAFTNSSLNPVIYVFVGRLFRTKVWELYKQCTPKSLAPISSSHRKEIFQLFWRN
Put plainly: Antagonist activity at human bradykinin B1 receptor in IL1-beta stimulated IMR90 cells by FLIPR assay. Format: functional, cell-based, IMR-90.
Broadly, the IC50 is the midpoint of a concentration-inhibition curve. Compound `CN1CCC(N2CCC(CCNC(=O)c3nn(-c4ccccc4)c(NC(=O)c4ccccc4Cl)c3Br)CC2)CC1` displayed an IC50 of 320 nM.

For `COc1ccc(-n2nc(C(=O)NCCC3CCN(c4ccncc4)CC3)c(Br)c2NC(=O)c2ccccc2Cl)cc1`, the IC50 came out at 1200 nM.

`CN(C)CCn1nc(C(=O)NCCC2CCN(c3ccncc3)CC2)c(Br)c1NC(=O)c1ccccc1Cl`: the IC50 was determined as 1600 nM.

In turn, `O=C(Nc1[nH]nc(C(=O)NCCc2ccncc2)c1Br)c1ccccc1Cl` showed an IC50 of 490 nM.

On to `Cn1nc(C(=O)NCCC2CCN(c3ccncc3)CC2)c(Br)c1NC(=O)c1ccccc1Cl`, for which the IC50 worked out at 44 nM.

Compound `COC(=O)[C@@H](NC(=O)c1n[nH]c(NC(=O)c2ccccc2Cl)c1Br)c1ccccc1` displayed an IC50 of 290 nM. Against the preceding compound, the IC50 is about 6.6-fold higher.

Turning to `O=C(Nc1[nH]nc(C(=O)N[C@@H]2CCCCNC2=O)c1Br)c1ccccc1Cl`, the IC50 was 290 nM.

In turn, `O=C(Nc1[nH]nc(C(=O)Nc2ccccc2)c1Cl)c1ccccc1Cl` came in with an IC50 of 700 nM. This IC50 is about 2.4-fold higher than that of the compound before.

In the case of `O=C(Nc1c(Br)c(C(=O)N[C@@H]2CCCCNC2=O)nn1-c1ccccc1)c1ccccc1Cl`, the IC50 is above 10000 nM.

Compound `Cc1nc(-c2n[nH]c(NC(=O)c3ccccc3Cl)c2Br)cs1` yielded an IC50 of 1100 nM.

Take `O=C(Nc1[nH]nc(C(=O)NC2N=C(c3ccccc3)c3ccccc3NC2=O)c1Br)c1ccccc1F` (configuration not stated): the IC50 is 10 nM.

As to `O=C(Nc1ccccc1)c1cc(NC(=O)c2ccccc2Cl)[nH]n1`, the IC50 was above 10000 nM.

In turn, `Nc1cccc(N2CCC(CNC(=O)c3n[nH]c(NC(=O)c4ccccc4Cl)c3Br)CC2)n1` came in with an IC50 of 13 nM.

On to `CN1CCC(N2CCC(CCNC(=O)c3n[nH]c(NC(=O)c4ccccc4Cl)c3Br)CC2)CC1`, for which half-maximal inhibition (IC50) was put at 1.8 nM.

`CC(C)C(=O)Nc1[nH]nc(C(=O)NC2N=C(c3ccccc3)c3ccccc3NC2=O)c1Br` (configuration not stated) yielded a 50% inhibitory concentration (IC50) of 650 nM.

`CN1CCC(CCNC(=O)c2n[nH]c(NC(=O)c3ccccc3Cl)c2Br)CC1` yielded an IC50 of 86 nM.

`Cc1c(C(=O)NCCC2CCN(c3ccncc3)CC2)n[nH]c1NC(=O)c1ccccc1Cl`: the IC50 was found to be 9.3 nM.

For the compound `Cc1c(C(=O)Nc2ccccc2)n[nH]c1NC(=O)c1ccccc1Cl`, the IC50 is 2000 nM.

Compound `CC[C@@H](NC(=O)c1n[nH]c(NC(=O)c2ccccc2Cl)c1Br)C(=O)N(C)C` registered an IC50 of 82 nM. This IC50 lies about 24-fold lower than the previous one.

`O=C(Nc1c(Br)c(C(=O)NCCC2CCN(c3ccncc3)CC2)nn1-c1ccccc1)c1ccccc1Cl` registered an IC50 of 3.5 nM.

In the case of `O=C(Nc1[nH]nc(C(=O)NCCC2CCN(c3ccncc3)CC2)c1Br)c1ccccc1Cl`, the IC50 was determined as 3 nM. This IC50 and that of the compound before are within 1.5-fold of each other.

As to `O=C(Nc1[nH]nc(C(=O)NCCC2CCN(c3ccncc3)CC2)c1Cl)c1ccccc1Cl`, it took 3.9 nM to reach half-maximal inhibition (IC50).

As for `O=C(Nc1c(Br)c(C(=O)NCCC2CCN(c3ccncc3)CC2)nn1Cc1ccccc1)c1ccccc1Cl`, the IC50 was found to be 71 nM.

Regarding `O=C(Nc1[nH]nc(C(=O)Nc2ccc(CCC3=NCCN3)cc2)c1Br)c1ccccc1Cl`, half-maximal inhibition (IC50) required 0.075 nM.

Take `CC(=O)Nc1[nH]nc(C(=O)NC2N=C(c3ccccc3)c3ccccc3NC2=O)c1Br` (configuration not stated): the IC50 was above 10000 nM.

As to `O=C(Nc1[nH]nc(C(=O)Nc2ccncc2)c1Br)c1ccccc1Cl`, the IC50 was 560 nM.

As for `C[C@@H](NC(=O)c1n[nH]c(NC(=O)c2ccccc2Cl)c1Br)C(=O)N1CCCCC1`, the IC50 is 16 nM.

Consider `C[C@@H](NC(=O)c1n[nH]c(NC(=O)c2ccccc2Cl)c1Br)c1ccccc1`, for which half-maximal inhibition (IC50) required 210 nM. This IC50 is about 13-fold higher than that of the compound before.

The compound `O=C(Nc1c(Br)c(C(=O)N[C@@H]2N=C(c3ccccc3)c3ccccc3NC2=O)nn1-c1ccccc1)c1ccccc1Cl` came in with an IC50 above 10000 nM.

In turn, `NC(=O)[C@@H](NC(=O)c1n[nH]c(NC(=O)c2ccccc2Cl)c1Br)c1ccccc1` gave an IC50 of 1700 nM.

`Cn1nc(NC(=O)c2ccccc2Cl)c(Br)c1C(=O)NCCC1CCN(c2ccncc2)CC1`: the concentration for half-maximal inhibition (IC50) came out at 640 nM.

For the compound `O=C(NCCC1CCN(c2ccncc2)CC1)c1cc(NC(=O)c2ccccc2Cl)[nH]n1`, the 50% inhibitory concentration (IC50) is 200 nM.

The compound `O=C(Nc1[nH]nc(C(=O)NC2N=C(c3ccccc3)c3ccccc3NC2=O)c1Br)c1ccccc1` (configuration not stated) showed an IC50 of 49 nM.

Take `O=C(Nc1[nH]nc(C(=O)NCCC2CCN(c3ccncc3)CC2)c1F)c1ccccc1Cl`: the IC50 is 23 nM.

For `O=C(Nc1[nH]nc(C(=O)NC2N=C(c3ccccc3)c3ccccc3NC2=O)c1Br)c1ccccc1Cl` (racemic), the IC50 is 5.2 nM.

`CC(C)(C)c1ccc(-c2n[nH]c(NC(=O)c3ccccc3Cl)c2Br)cc1` yielded an IC50 of 3200 nM.

The compound `O=C(Nc1[nH]nc(C(=O)N[C@@H]2CN3CCC2CC3)c1Br)c1ccccc1Cl` displayed an IC50 of 60 nM. Against the preceding compound, the IC50 is about 53-fold lower.

The compound `O=C(Nc1[nH]nc(C(=O)Nc2ccccc2)c1Br)c1ccccc1Cl` displayed an IC50 of 530 nM. Against the preceding compound, the IC50 is about 8.8-fold higher.

Take `O=C(Nc1c(Br)c(C(=O)NCCC2CCN(c3ccncc3)CC2)nn1-c1ccccn1)c1ccccc1Cl`: the IC50 came to 12 nM.

The next experiment concerns the target T1, B1 bradykinin receptor. Put plainly: Displacement of [3H]DAKA from human bradykinin B1 receptor in IL1-beta stimulated IMR90 cells. Format: cell-based, IMR-90. In general terms: Loss of bound radioactivity is the signal in a displacement assay; it reports binding, not function.
Usually Ki stands for a dissociation constant, usually derived from enzyme kinetics or from competition with a known ligand. `O=C(Nc1[nH]nc(C(=O)NCCc2ccncc2)c1Br)c1ccccc1Cl` returned a Ki of 120 nM.

In turn, `COC(=O)[C@@H](NC(=O)c1n[nH]c(NC(=O)c2ccccc2Cl)c1Br)c1ccccc1` came in with a Ki of 73 nM.

As to `O=C(Nc1[nH]nc(C(=O)Nc2ccccc2)c1Br)c1ccccc1Cl`, the affinity, expressed as Ki, was 200 nM.
